Data published in ChEMBL document CHEMBL1201862, “PubChem BioAssay data set” (2004).
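A five-concentration, 48-hour dose response in 96-well plates underlies each endpoint, interpolated linearly between surrounding concentrations. GI50: concentration for 50% inhibition of growth.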 Active and inactive are the calls of the source. Cut-off read from the data, not from the text of the source: active = GI50 up to about 1.1 µM and inactive = higher.

What was measured:
Assay in all cases: inhibition of tumour cell growth, NCI panel, 48 h
786-0 = test system: 786-0
A498 = test system: A498
A549 = test system: A549
ACHN = test system: ACHN
BT-549 = test system: BT-549
CAKI-1 = test system: CAKI-1
CCRF-CEM = test system: CCRF-CEM
COLO 205 = test system: COLO 205
EKVX = test system: EKVX
HCC 2998 = test system: HCC 2998
HCT-116 = test system: HCT-116
HCT-15 = test system: HCT-15
HOP-62 = test system: HOP-62
HOP-92 = test system: HOP-92
HT-29 = test system: HT-29
Hs-578T = test system: Hs-578T
IGROV-1 = test system: IGROV-1
K562 = test system: K562
KM12 = test system: KM12
LOX IMVI = test system: LOX IMVI
M14 = test system: M14
MCF7 = test system: MCF7
MDA-MB-231 = test system: MDA-MB-231
MDA-MB-435 = test system: MDA-MB-435
MDA-N = test system: MDA-N
MOLT-4 = test system: MOLT-4
Malme-3M = test system: Malme-3M
NCI-H226 = test system: NCI-H226
NCI-H23 = test system: NCI-H23
NCI-H460 = test system: NCI-H460
NCI/ADR-RES = test system: NCI/ADR-RES
OVCAR-3 = test system: OVCAR-3
OVCAR-4 = test system: OVCAR-4
OVCAR-5 = test system: OVCAR-5
OVCAR-8 = test system: OVCAR-8
PC-3 = test system: PC-3
RPMI-8226 = test system: RPMI-8226
SF-268 = test system: SF-268
SF-295 = test system: SF-295
SF-539 = test system: SF-539
SK-MEL-28 = test system: SK-MEL-28
SK-MEL-2 = test system: SK-MEL-2
SK-MEL-5 = test system: SK-MEL-5
SK-OV-3 = test system: SK-OV-3
SN12C = test system: SN12C
SNB-19 = test system: SNB-19
SNB-75 = test system: SNB-75
SR = test system: SR
SW-620 = test system: SW-620
T47D = test system: T47D
TK-10 = test system: TK-10
U-251 = test system: U-251
UACC-257 = test system: UACC-257
UACC-62 = test system: UACC-62
UO-31 = test system: UO-31
DU-145 = test system: DU-145
HL-60 = test system: HL-60
NCI-H522 = test system: NCI-H522
RXF 393 = test system: RXF 393

## CCCCc1ccc(N2C(=O)c3cc([N+](=O)[O-])cnc3S2(=O)=O)cc1
786-0
  GI50: > 100 µM (inactive)
A498
  GI50: > 100 µM (inactive)
A549
  GI50: > 100 µM (inactive)
ACHN
  GI50: > 100 µM (inactive)
BT-549
  GI50: 87.7 µM (inactive)
CAKI-1
  GI50: > 100 µM (inactive)
CCRF-CEM
  GI50: > 10 µM (inactive)
COLO 205
  GI50: > 100 µM (inactive)
EKVX
  GI50: > 100 µM (inactive)
HCC 2998
  GI50: > 100 µM (inactive)
HCT-116
  GI50: > 100 µM (inactive)
HCT-15
  GI50: > 100 µM
HOP-62
  GI50: > 100 µM (inactive)
HOP-92
  GI50: 0.424 µM (active)
HT-29
  GI50: > 100 µM (inactive)
Hs-578T
  GI50: > 100 µM (inactive)
IGROV-1
  GI50: > 100 µM (inactive)
K562
  GI50: > 100 µM (inactive)
KM12
  GI50: > 100 µM (inactive)
LOX IMVI
  GI50: 61.7 µM (inactive)
M14
  GI50: > 100 µM (inactive)
MCF7
  GI50: 59.8 µM (inactive)
MDA-MB-231
  GI50: > 100 µM (inactive)
MDA-MB-435
  GI50: > 100 µM (inactive)
MDA-N
  GI50: > 100 µM (inactive)
MOLT-4
  GI50: > 100 µM (inactive)
Malme-3M
  GI50: > 100 µM (inactive)
NCI-H226
  GI50: > 100 µM (inactive)
NCI-H23
  GI50: > 100 µM (inactive)
NCI-H460
  GI50: > 100 µM (inactive)
NCI/ADR-RES
  GI50: 25.2 µM (inactive)
OVCAR-3
  GI50: > 100 µM (inactive)
OVCAR-4
  GI50: > 100 µM (inactive)
OVCAR-5
  GI50: > 100 µM (inactive)
OVCAR-8
  GI50: > 100 µM (inactive)
PC-3
  GI50: > 100 µM (inactive)
RPMI-8226
  GI50: > 100 µM (inactive)
SF-268
  GI50: 24.2 µM (inactive)
SF-295
  GI50: 47.2 µM (inactive)
SF-539
  GI50: > 100 µM (inactive)
SK-MEL-28
  GI50: > 100 µM (inactive)
SK-MEL-2
  GI50: 23.3 µM (inactive)
SK-MEL-5
  GI50: > 100 µM (inactive)
SK-OV-3
  GI50: > 100 µM (inactive)
SN12C
  GI50: > 100 µM (inactive)
SNB-19
  GI50: 52.1 µM (inactive)
SNB-75
  GI50: > 100 µM (inactive)
SR
  GI50: 43.3 µM (inactive)
SW-620
  GI50: > 100 µM (inactive)
T47D
  GI50: > 100 µM (inactive)
TK-10
  GI50: > 100 µM (inactive)
U-251
  GI50: 31.8 µM (inactive)
UACC-257
  GI50: > 100 µM (inactive)
UACC-62
  GI50: > 100 µM (inactive)
UO-31
  GI50: > 100 µM (inactive)

## C/C(=C(/C)c1ccc(O)cc1)c1ccc(O)cc1 [DIMETHYLSTILBESTROL]
786-0
  GI50: 61.9 µM (inactive)
A498
  GI50: 54.6 µM (inactive)
A549
  GI50: 71.3 µM (inactive)
ACHN
  GI50: 28.8 µM (inactive)
BT-549
  GI50: 12.6 µM (inactive)
CAKI-1
  GI50: 37 µM (inactive)
CCRF-CEM
  GI50: 42.3 µM (inactive)
COLO 205
  GI50: > 100 µM (inactive)
DU-145
  GI50: 87.3 µM (inactive)
EKVX
  GI50: 8.95 µM (inactive)
HCC 2998
  GI50: > 100 µM (inactive)
HCT-116
  GI50: 83.2 µM (inactive)
HCT-15
  GI50: 61.1 µM
HL-60
  GI50: 41.4 µM (inactive)
HOP-62
  GI50: 94 µM (inactive)
HOP-92
  GI50: 27.4 µM (inactive)
HT-29
  GI50: 48.8 µM (inactive)
Hs-578T
  GI50: 24.5 µM (inactive)
IGROV-1
  GI50: > 100 µM (inactive)
K562
  GI50: 46 µM (inactive)
KM12
  GI50: 62.7 µM (inactive)
M14
  GI50: 45.3 µM (inactive)
MCF7
  GI50: 39.5 µM (inactive)
MDA-MB-231
  GI50: > 100 µM (inactive)
MDA-MB-435
  GI50: 37.9 µM (inactive)
MDA-N
  GI50: 31.8 µM (inactive)
MOLT-4
  GI50: 45.5 µM (inactive)
Malme-3M
  GI50: 60.8 µM (inactive)
NCI-H226
  GI50: 36.7 µM (inactive)
NCI-H23
  GI50: 43.6 µM (inactive)
NCI-H460
  GI50: 49.8 µM (inactive)
NCI-H522
  GI50: > 100 µM (inactive)
NCI/ADR-RES
  GI50: 45.5 µM (inactive)
OVCAR-3
  GI50: 46.6 µM (inactive)
OVCAR-4
  GI50: > 10 µM (inactive)
OVCAR-5
  GI50: > 100 µM (inactive)
OVCAR-8
  GI50: 36.1 µM (inactive)
PC-3
  GI50: 41.3 µM (inactive)
RPMI-8226
  GI50: 34.9 µM (inactive)
RXF 393
  GI50: 56.8 µM (inactive)
SF-268
  GI50: > 100 µM (inactive)
SF-539
  GI50: 32.3 µM (inactive)
SK-MEL-2
  GI50: 10 µM (inactive)
SK-MEL-5
  GI50: 19.5 µM (inactive)
SK-OV-3
  GI50: > 100 µM (inactive)
SN12C
  GI50: 58.6 µM (inactive)
SNB-19
  GI50: > 100 µM (inactive)
SNB-75
  GI50: 39.2 µM (inactive)
SR
  GI50: 40.1 µM (inactive)
SW-620
  GI50: > 100 µM (inactive)
TK-10
  GI50: 89.5 µM (inactive)
U-251
  GI50: 67.3 µM (inactive)
UACC-257
  GI50: 43.4 µM (inactive)
UACC-62
  GI50: 23.7 µM (inactive)
UO-31
  GI50: 70.8 µM (inactive)

## CCOP(=O)(OCC)C(Cc1ccccc1)N=C(c1ccccc1)c1ccccc1 (centres undefined)
786-0
  GI50: 15.2 µM (inactive)
A549
  GI50: 9.29 µM (inactive)
ACHN
  GI50: 14.9 µM (inactive)
BT-549
  GI50: 13.2 µM (inactive)
CAKI-1
  GI50: 16.2 µM (inactive)
CCRF-CEM
  GI50: 9.95 µM (inactive)
COLO 205
  GI50: 14.3 µM (inactive)
DU-145
  GI50: 20.9 µM (inactive)
EKVX
  GI50: 18 µM (inactive)
HCT-116
  GI50: 14.6 µM (inactive)
HCT-15
  GI50: 12.1 µM
HL-60
  GI50: 16.3 µM (inactive)
HOP-62
  GI50: 17.6 µM (inactive)
HOP-92
  GI50: 13.6 µM (inactive)
HT-29
  GI50: 13.1 µM (inactive)
Hs-578T
  GI50: 11.2 µM (inactive)
IGROV-1
  GI50: 13.9 µM (inactive)
K562
  GI50: 7.29 µM (inactive)
KM12
  GI50: 15.5 µM (inactive)
LOX IMVI
  GI50: 11.6 µM (inactive)
M14
  GI50: 15.3 µM (inactive)
MCF7
  GI50: 13.9 µM (inactive)
MDA-MB-435
  GI50: 13.2 µM (inactive)
MDA-N
  GI50: 14.6 µM (inactive)
MOLT-4
  GI50: 4.93 µM (inactive)
Malme-3M
  GI50: 20.6 µM (inactive)
NCI-H226
  GI50: 14.2 µM (inactive)
NCI-H23
  GI50: 12.7 µM (inactive)
NCI-H460
  GI50: 14.8 µM (inactive)
NCI-H522
  GI50: 12.4 µM (inactive)
NCI/ADR-RES
  GI50: 10.1 µM (inactive)
OVCAR-3
  GI50: 14.5 µM (inactive)
OVCAR-4
  GI50: 16.2 µM (inactive)
OVCAR-5
  GI50: 14.4 µM (inactive)
OVCAR-8
  GI50: 16.3 µM (inactive)
PC-3
  GI50: 3.96 µM (inactive)
RPMI-8226
  GI50: 25.4 µM (inactive)
SF-268
  GI50: 17.8 µM (inactive)
SF-295
  GI50: 12.3 µM (inactive)
SK-MEL-28
  GI50: 17 µM (inactive)
SK-MEL-2
  GI50: 18.2 µM (inactive)
SK-MEL-5
  GI50: 12.9 µM (inactive)
SK-OV-3
  GI50: 15.2 µM (inactive)
SN12C
  GI50: 16.7 µM (inactive)
SNB-19
  GI50: 14.6 µM (inactive)
SNB-75
  GI50: 11.5 µM (inactive)
SR
  GI50: 17.9 µM (inactive)
SW-620
  GI50: 12.4 µM (inactive)
T47D
  GI50: 6.97 µM (inactive)
TK-10
  GI50: 11.5 µM (inactive)
U-251
  GI50: 13.3 µM (inactive)
UACC-257
  GI50: 13.7 µM (inactive)
UACC-62
  GI50: 13.3 µM (inactive)
UO-31
  GI50: 11.5 µM (inactive)
